pIC50: −log10 of the molar value. Where two headings read alike, the source gives them in different places.

This is an account of results in patent publication US9440982B2 (Eolas Therapeutics, Inc., priority 2012, dated 2016).

Data set [1] concerns the target T1, OX1 (Homo sapiens, UniProt O43613).
T1 construct: expressed in transfected cells; host or cells: CHO (CHO-OX1, kept under selection antibiotic)
T1 sequence (O43613 1-425): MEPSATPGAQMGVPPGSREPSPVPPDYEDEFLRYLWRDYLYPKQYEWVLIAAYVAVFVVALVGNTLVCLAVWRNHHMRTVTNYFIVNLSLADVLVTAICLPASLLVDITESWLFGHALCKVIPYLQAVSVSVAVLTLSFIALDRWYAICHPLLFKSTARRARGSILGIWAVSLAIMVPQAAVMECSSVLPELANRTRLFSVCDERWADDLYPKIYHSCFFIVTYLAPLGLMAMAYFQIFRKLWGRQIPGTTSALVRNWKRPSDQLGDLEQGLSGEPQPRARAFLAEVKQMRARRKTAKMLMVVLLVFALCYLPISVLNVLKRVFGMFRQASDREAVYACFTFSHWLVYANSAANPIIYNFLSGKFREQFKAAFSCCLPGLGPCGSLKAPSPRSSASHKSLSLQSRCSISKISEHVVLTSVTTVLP
The data set can be described thus: Orexin receptor cell-based functional assay, [Ca2+]i by FLIPR, CHO-OX1 cells. In a few lines: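 Antagonist mode FLIPR calcium read in CHO-OX1 and CHO-OX2 lines. Test compounds, dosed 0.1 nM-10 μM, preincubated 30 min after 37° C dye loading with 2.5 mM probenecid (calcium4 for 30 min or calcium6 for 2 h).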

The target of data set [2] is T2, CYP3A4 (Homo sapiens, UniProt P08684).
T2 construct: pre-incubated with human liver microsomes and NADPH; from tissue; host or cells: human liver microsomes
The data set can be described thus: Cytochrome P450 inhibition assay (midazolam hydroxylation). It is filed as in vitro ADME. The settings on record: human, human liver microsomes, probe midazolam (hydroxylation to 1′-hydroxymidazolam), 10 μM test compound, midazolam at approximately its Km. Summed up: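 Percent inhibition of midazolam 1′-hydroxylation by 10 μM compound was measured, midazolam dosed at about Km. Time-dependent inhibition was probed by a 30 min preincubation of compound with human liver microsomes and NADPH ahead of substrate, compared against samples without preincubation.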
Background: Liver microsomes are a subcellular fraction often used to study metabolism.

[3] abbreviates: CHO-OX1 cells, [Ca2+]i by FLIPR, antagonist dose-range 0.1 nM-10 μM, EC90 of OXA, read-out: OX1.

T2 sequence (P08684 whole entry): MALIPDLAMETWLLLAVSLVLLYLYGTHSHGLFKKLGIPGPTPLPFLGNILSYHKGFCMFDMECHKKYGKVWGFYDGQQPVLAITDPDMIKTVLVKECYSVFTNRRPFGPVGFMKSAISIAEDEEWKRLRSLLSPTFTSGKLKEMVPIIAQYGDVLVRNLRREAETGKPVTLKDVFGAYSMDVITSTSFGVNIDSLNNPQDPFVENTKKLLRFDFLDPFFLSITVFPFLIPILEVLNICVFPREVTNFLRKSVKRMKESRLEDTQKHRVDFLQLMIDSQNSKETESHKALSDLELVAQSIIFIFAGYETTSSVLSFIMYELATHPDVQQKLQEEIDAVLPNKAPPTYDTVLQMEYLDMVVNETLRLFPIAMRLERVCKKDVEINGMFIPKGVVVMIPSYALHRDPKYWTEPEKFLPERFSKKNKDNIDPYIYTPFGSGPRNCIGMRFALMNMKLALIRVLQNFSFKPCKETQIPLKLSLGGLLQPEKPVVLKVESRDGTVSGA

One may read the inhibition as the share of the control response that was lost under treatment. Read a high inhibition as a response far below the control. For `Cc1ccc(-n2ccc(C)n2)c(C(=O)N2CCC[C@@H](C)[C@H]2CNc2ccc(C#N)cn2)c1` [Example A133, 6-((((2S,3R)-3-Methyl-1-(5-methyl-2-(3-methyl-1H-pyrazol-1-yl)benzoyl)piperidin-2-yl)methyl)amino)nicotinonitrile], the pIC50 in data set [1] (setting [3]) was 7.03. The inhibition at 10 µM in data set [2] came out at 89%.

Take `Cc1ccc(-n2nccn2)c(C(=O)N2CCC[C@@H](C)[C@H]2CNc2ncccc2C(F)(F)F)c1` [Example A88, ((2S,3R)-3-Methyl-2-(((3-(trifluoromethyl)pyridin-2-yl)amino)methyl)piperidin-1-yl)(5-methyl-2-(2H-1,2,3-triazol-2-yl)phenyl)methanone]: in data set [1] (setting [3]), the pIC50 is 6.22. In data set [2], this compound came in with an inhibition at 10 µM of 75%.

As to `Cc1ccc(-n2nccn2)c(C(=O)N2CCC[C@@H](C)[C@H]2CNc2ncc(Cl)cn2)n1` [Example A177, ((2S,3R)-2-(((5-Chloropyrimidin-2-yl)amino)methyl)-3-methylpiperidin-1-yl)(6-methyl-3-(2H-1,2,3-triazol-2-yl)pyridin-2-yl)methanone], in data set [1] (setting [3]), the pIC50 was 8.30. The same compound had an inhibition at 10 µM in data set [2] of 39%.

Regarding `C[C@@H]1CCCN(C(=O)c2cc(Cl)ccc2-n2nccn2)[C@@H]1CNc1ccc(C(F)(F)F)nn1` [Example A162, (5-Chloro-2-(2H-1,2,3-triazol-2-yl)phenyl)((2S,3R)-3-methyl-2-(((6-(trifluoromethyl)pyridazin-3-yl)amino)methyl)piperidin-1-yl)methanone], the pIC50 in data set [1] (setting [3]) is 7.82. In addition, in data set [2], 10 µM produced 76% inhibition.

As for `C[C@@H]1CCCN(C(=O)c2cc(Cl)ccc2-n2nccn2)[C@@H]1CNc1ncc(C(F)(F)F)cn1` [Example A160, (5-Chloro-2-(2H-1,2,3-triazol-2-yl)phenyl)((2S,3R)-3-methyl-2-(((5-(trifluoromethyl)pyrimidin-2-yl)amino)methyl)piperidin-1-yl)methanone], the pIC50 in data set [1] (setting [3]) was 9.00. This compound gave an inhibition at 10 µM in data set [2] of 59%.

For the compound `Cc1ccc(-c2ncccn2)c(C(=O)N2CCC[C@@H](C)[C@H]2CNc2ccc(Cl)cn2)c1` [Example A138, ((2S,3R)-2-(((5-Chloropyridin-2-yl)amino)methyl)-3-methylpiperidin-1-yl)(5-methyl-2-(pyrimidin-2-yl)phenyl)methanone], the pIC50 in data set [1] (setting [3]) was 7.92. In data set [2], at 10 µM the inhibition was 75%.

`Cc1ccc(-c2ccccn2)c(C(=O)N2CCC[C@@H](C)[C@H]2CNc2ccc(Cl)cn2)n1` [Example A169, ((2S,3R)-2-(((5-Chloropyridin-2-yl)amino)methyl)-3-methylpiperidin-1-yl)(6′-methyl-[2,3′-bipyridin]-2′-yl)methanone]: in data set [1] (setting [3]), the pIC50 is 8.10. At 10 µM the inhibition in data set [2] was 60%.

Regarding `Cc1ccc(-c2cnccc2C)c(C(=O)N2CCC[C@@H](C)[C@H]2CNc2ccc(C(F)(F)F)cn2)c1` [Example A8, ((2S,3R)-3-Methyl-2-(((5-(trifluoromethyl)pyridin-2-yl)amino)methyl)piperidin-1-yl)(5-methyl-2-(4-methylpyridin-3-yl)phenyl)methanone], the pIC50 in data set [1] (setting [3]) is 7.24. The same compound gave an inhibition at 10 µM in data set [2] of 99%.

As to `Cc1ccc(-c2ncccn2)c(C(=O)N2CCC[C@@H](C)[C@H]2CNc2ccc(C#N)cn2)c1` [Example A139, 6-((((2S,3R)-3-Methyl-1-(5-methyl-2-(pyrimidin-2-yl)benzoyl)piperidin-2-yl)methyl)amino)nicotinonitrile], in data set [1] (setting [3]), the pIC50 is 6.85. This compound also came in with an inhibition at 10 µM in data set [2] of 41%.

Take `Cc1ccc(-c2ncccn2)c(C(=O)N2CCC[C@@H](C)[C@H]2CNc2nc3ccccc3o2)c1` [Example A204, ((2S,3R)-2-((Benzo[d]oxazol-2-ylamino)methyl)-3-methylpiperidin-1-yl)(5-methyl-2-(pyrimidin-2-yl)phenyl)methanone]: the pIC50 in data set [1] (setting [3]) was 8.52. The compound also had an inhibition at 10 µM in data set [2] of 60%.

Regarding `Cc1nc(C(=O)N2CCC[C@@H](C)[C@H]2CNc2ccc(C(F)(F)F)cn2)c(-c2ccc(F)cc2)s1` [Example A85, (5-(4-Fluorophenyl)-2-methylthiazol-4-yl)((2S,3R)-3-methyl-2-(((5-(trifluoromethyl)pyridin-2-yl)amino)methyl)piperidin-1-yl)methanone], the pIC50 was 8.70 in data set [1] (setting [3]) and 8.70 in data set [1] (Table 6, racemate vs enantiomers, read-out: OX1 IC50). The compound further gave an inhibition at 10 µM in data set [2] of 9%.

In the case of `C[C@@H]1CCCN(C(=O)c2cc(Cl)ccc2-c2ncccn2)[C@@H]1CNc1ncc(Cl)cn1` [Example A202, (5-Chloro-2-(pyrimidin-2-yl)phenyl)((2S,3R)-2-(((5-chloropyrimidin-2-yl)amino)methyl)-3-methylpiperidin-1-yl)methanone], the pIC50 in data set [1] (setting [3]) was 7.74. 10 µM produced 44% inhibition in data set [2].

In general, IC50 refers to the point on the concentration scale where inhibition reaches its midpoint. As for `C[C@@H]1CCCN(C(=O)c2cc(F)ccc2-n2nccn2)[C@@H]1CNc1ccc(C(F)(F)F)cn1` [Example A310], in data set [1] (OX1 (μM)), the IC50 stood at 0.003 µM. This compound returned an inhibition at 10 µM in data set [2] of 75%.

With `CCn1cc(-c2ccc(C)cc2C(=O)N2CCC[C@@H](C)[C@H]2CNc2ccc(C(F)(F)F)cn2)cn1` [Example A110, (2-(1-Ethyl-1H-pyrazol-4-yl)-5-methylphenyl)((2S,3R)-3-methyl-2-(((5-(trifluoromethyl)pyridin-2-yl)amino)methyl)piperidin-1-yl)methanone], the pIC50 in data set [1] (setting [3]) is 7.80. Moreover, in data set [2], testing at 10 µM gave an inhibition of 95%.

As to `Cc1ccc(-c2cnn(C)c2)c(C(=O)N2CCC[C@@H](C)[C@H]2CNc2ncccc2C(F)(F)F)c1` [Example A93, ((2S,3R)-3-Methyl-2-(((3-(trifluoromethyl)pyridin-2-yl)amino)methyl)piperidin-1-yl)(5-methyl-2-(1-methyl-1H-pyrazol-4-yl)phenyl)methanone], the pIC50 in data set [1] (setting [3]) was 6.34. In data set [2], this compound had an inhibition at 10 µM of 96%.

In the case of `C[C@@H]1CCCN(C(=O)c2cccc(F)c2-n2nccn2)[C@@H]1CNc1ccc(C(F)(F)F)cn1` [Example A257, (3-Fluoro-2-(2H-1,2,3-triazol-2-yl)phenyl)((2S,3R)-3-methyl-2-(((5-(trifluoromethyl)pyridin-2-yl)amino)methyl)piperidin-1-yl)methanone], in data set [1] (setting [3]), the pIC50 was 8.40. In addition, in data set [2], 10 µM produced 69% inhibition.

Turning to `C[C@@H]1CCCN(C(=O)c2cc(Cl)ccc2-c2ncccn2)[C@@H]1CNc1ccc(C(F)(F)F)nn1` [Example A200, (5-Chloro-2-(pyrimidin-2-yl)phenyl)((2S,3R)-3-methyl-2-(((6-(trifluoromethyl)pyridazin-3-yl)amino)methyl)piperidin-1-yl)methanone], in data set [1] (setting [3]), the pIC50 is 7.27. This compound registered an inhibition at 10 µM in data set [2] of 73%.

With `Cc1ccc(-n2nccn2)c(C(=O)N2CCC[C@@H](C)[C@H]2CNc2ncc(C(F)(F)F)cc2F)n1` [Example A188, ((2S,3R)-2-(((3-Fluoro-5-(trifluoromethyl)pyridin-2-yl)amino)methyl)-3-methylpiperidin-1-yl)(6-methyl-3-(2H-1,2,3-triazol-2-yl)pyridin-2-yl)methanone], the pIC50 in data set [1] (setting [3]) was 9.00. The inhibition at 10 µM in data set [2] was 59%.

With `Cc1ccc(-n2ccc(C)n2)c(C(=O)N2CCC[C@@H](C)[C@H]2CNc2nnc(C(F)(F)F)s2)c1` [Example A132, ((2S,3R)-3-Methyl-2-(((5-(trifluoromethyl)-1,3,4-thiadiazol-2-yl)amino)methyl)piperidin-1-yl)(5-methyl-2-(3-methyl-1H-pyrazol-1-yl)phenyl)methanone], the pIC50 in data set [1] (setting [3]) is 6.80. The compound also returned an inhibition at 10 µM in data set [2] of 81%.

Take `C[C@@H]1CCCN(C(=O)c2cc(F)ccc2-n2nccn2)[C@@H]1CNc1ccc(C(F)(F)F)nn1` [Example A208, (5-Fluoro-2-(2H-1,2,3-triazol-2-yl)phenyl)((2S,3R)-3-methyl-2-(((6-(trifluoromethyl)pyridazin-3-yl)amino)methyl)piperidin-1-yl)methanone]: the pIC50 in data set [1] (setting [3]) was 6.70. The inhibition at 10 µM in data set [2] is 59%.

With `C[C@@H]1CCCN(C(=O)c2ccccc2-n2nccn2)[C@@H]1CNc1ccc(C(F)(F)F)cn1` [Example A314, (2-(2H-1,2,3-Triazol-2-yl)phenyl)((2S,3R)-3-methyl-2-(((5-(trifluoromethyl)pyridin-2-yl)amino)methyl)piperidin-1-yl)methanone], the pIC50 in data set [1] (setting [3]) was 8.70. This compound also registered an inhibition at 10 µM in data set [2] of 76%.

`Cc1ccc(-n2ncc(C)n2)c(C(=O)N2CCC[C@@H](C)[C@H]2CNc2ccc(Cl)cn2)c1` [Example A121, ((2S,3R)-2-(((5-Chloropyridin-2-yl)amino)methyl)-3-methylpiperidin-1-yl)(5-methyl-2-(4-methyl-2H-1,2,3-triazol-2-yl)phenyl)methanone]: the pIC50 in data set [1] (setting [3]) was 8.30. The compound further displayed an inhibition at 10 µM in data set [2] of 84%.
